In paper PMC5938390, “Tachyplesin Causes Membrane Instability That Kills Multidrug-Resistant Bacteria by Inhibiting the 3-Ketoacyl Carrier Protein Reductase FabG” (Frontiers in Microbiology, 2018):
Positions of bridges follow the written chain, without caps; N, C: chain ends. Residues, ends and D or L forms follow the SMILES beside them.

Experiments:
[1] = target: T1, FabG from E. coli (Escherichia coli, UniProt P0AEK2); assay: Surface plasmon resonance binding; conditions: tachyplesin III on CM5 chip, FabG 1.25-10 μg/mL injected, HBS-N buffer
T1 construct: His tag (N); made in house; host or cells: E. coli BL21 DE3 (vector pET28a)
T1 sequence (P0AEK2 1-244): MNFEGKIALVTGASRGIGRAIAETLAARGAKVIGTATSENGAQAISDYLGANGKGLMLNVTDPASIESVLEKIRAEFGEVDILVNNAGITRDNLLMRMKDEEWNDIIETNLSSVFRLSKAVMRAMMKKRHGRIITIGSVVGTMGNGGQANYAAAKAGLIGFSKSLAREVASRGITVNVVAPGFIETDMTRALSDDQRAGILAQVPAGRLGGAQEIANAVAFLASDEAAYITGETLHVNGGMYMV
Protocol: N-terminal His-tagged FabG from E. coli and C-terminal His-tagged FabG from Staphylococcus aureus were cloned into the NcoI and XhoI cloning sites of the vector pET28a, expressed in BL21 DE3 E. coli and further purified with Ni resin ([Kristan et al., 2009]; [Srinivas and Cronan, 2017]). The binding interaction between tachyplesin III and FabG was analyzed by surface plasmon resonance (SPR) with a Biocore 3000 (Biocore, Piscataway, NJ, United States). Briefly, tachyplesin III was adsorbed onto a CM5 sensor chip using an amine-coupling kit (GE Healthcare, Little Chalfont, United Kingdom) to obtain approximately 1000 resonance units. […] The binding affinity of FabG for tachyplesin III was determined by BIAevaluation 3.0 software (Biacore) with a 1:1 Langmuir binding model for the kinetic calculation ([Wei et al., 2013]).
FIGURE 7 Tachyplesin III binding with FabG inhibits its enzyme activities in vitro, probably by blocking the active site. Binding interactions between tachyplesin III and FabG from E. coli (A) or from S. aureus (E) were analyzed by surface plasmon resonance (SPR) with a Biocore 3000 (Biocore, Piscataway, NJ, United States). […] Statistical significance was analyzed by one-way ANOVA followed by the Newman–Keuls multiple-comparisons test, ^∗∗p < 0.01, ^∗p < 0.05.

[2] = test system: P. aeruginosa strain 1409; assay: Membrane rupture by propidium iodide staining; format: cell-based, Pseudomonas aeruginosa; conditions: LB medium, 25°C, 1 h, then PI 10 μg/ml 30 min
Protocol: These studies were carried out as we previously reported with slight modifications and briefly introduced as follows ([Liu et al., 2017]). […] Cytotoxicity in different cell lines was assessed using the Cell Proliferation Kit II (XTT) (Roche), and cytotoxicity in hemocytes was evaluated by the increase in the absorbance at 540 nm after peptide incubation. Membrane rupture was indicated by the entrance of the DNA-binding fluorescent dye PI into MDR clinical isolates of P. aeruginosa strain 1409. Membrane translocation of N-terminal FITC-conjugated tachyplesin III (purity ≥ 95%, synthesized by GL Biochem Co., Ltd, Shanghai, China) into MDR clinical isolates of Acinetobacter baumannii strain 1408 were detected by confocal laser-scanning microscopy.
After centrifugation at 3000 g for 10 min, cells were resuspended in the same volume of PBS (phosphate-buffered saline, 8 g/L NaCl, 0.2 g/L KCl, 1.44 g/L Na2HPO4, 0.24 g/L KH2PO4, pH 7.4). Then, PI was added to a final concentration of 10 μg/ml. After 30 min of incubation at 25°C, the cells were washed three times with PBS and immediately imaged with a fluorescence microscope.

[3] = test system: E. coli 513; assay: MIC against clinical isolate; format: cell-based, Escherichia coli
[4] = test system: P. aeruginosa 1409; format: cell-based, Pseudomonas aeruginosa; conditions: Pa; Ta 16 μg/ml, 30 min, 37°C
Protocol: The Vitek 32 system (bioMerieux, France) and 16S rDNA sequencing were used to verify the clinical isolates A. baumannii 1408, P. aeruginosa 1409, Klebsiella pneumoniae 5 and E. coli 513, which were grown overnight in Luria-Bertani (LB) medium at 37°C with constant shaking at 220 rpm to reach the middle of their logarithmic growth phase. […] After the addition of 2 volumes of RNAprotect Bacteria Reagent (QIAGEN) to stabilized RNA, samples were vortexed for 5 s, incubated for 5 min at room temperature (15–25°C) and collected by centrifugation at 4°C for 5 min at 4000 g.
RNA isolation and sequencing were performed by Novogene Bioinformatics Technology Co., Ltd. (Beijing, China) as previously described ([Liu B. et al., 2014]). Clean reads were mapped to the corresponding bacterial genomes using Bowtie 2 software ([Langmead and Salzberg, 2012]). Gene expression was calculated using the FPKM (expected number of fragments per kilobase of transcript sequence per millions of base pairs sequenced) method with HTSeq software (union model) ([Anders et al., 2015]). Differentially expressed genes were selected based on the DESeq R package with Padj values < 0.05 ([Anders and Huber, 2010]). KEGG pathway analysis was performed using KOBAS (2.0), and the corrected p value cut-off was set at 0.05 ([Li et al., 2015]).

[5] = test system: P. aeruginosa 1409; assay: MIC against MDR clinical isolate; format: cell-based, Pseudomonas aeruginosa; conditions: P. aeruginosa 1409

## CC[C@H](C)[C@@H]1NC(=O)CNC(=O)[C@H](CCCNC(=N)N)NC(=O)[C@H](Cc2ccc(O)cc2)NC(=O)[C@@H]2CSSC[C@H](NC1=O)C(=O)N[C@@H](Cc1ccc(O)cc1)C(=O)N[C@@H](CCCNC(=N)N)C(=O)N[C@@H](CCCCN)C(=O)N[C@H](C(=O)N[C@@H](CCCNC(=N)N)C(N)=O)CSSC[C@H](NC(=O)[C@H](Cc1c[nH]c3ccccc13)NC(=O)[C@@H](N)CCCCN)C(=O)N[C@@H](Cc1ccccc1)C(=O)N[C@@H](CCCNC(=N)N)C(=O)N[C@@H](C(C)C)C(=O)N2 [tachyplesin III] (H-KWCFRVCYRGICYRKCR-NH2; disulfide 3-16, 7-12 (inferred); N-terminus and C-terminus assumed)
[1]
  binding with FabG (SPR): could bind
[2]; 1/4× MIC
  membrane integrity (PI fluorescence): slight membrane breakage in a small proportion of the treated bacteria
[2]; 4× MIC (high concentration)
  membrane integrity (PI fluorescence): complete membrane breakage of nearly all of the treated bacteria
[3]
  16 μg/ml tachyplesin III expressed as multiple of MIC: 4 × MIC
[4]
  Fold change after Ta treatment, gene PADK2_09275 (3-hydroxyacyl-CoA dehydrogenase): 2.04
  Fold change after Ta treatment, gene PADK2_25405 (3-ketoacyl-acyl carrier protein reductase): 2.71
[5]
  16 μg/ml tachyplesin III expressed as multiple of MIC: 2 × MIC
